Where a name gives a salt, the structure may show the parent alone. Read-outs that look alike come from different tables or passages of the source.
Legend:
hGPR40 [1] = target: T1, hGPR40 (Homo sapiens, UniProt O14842); assay: FDSS-based intracellular calcium assay in cell lines expressing GPR40; design: 3xFLAG; expressed in transfected cells; settings: intracellular Ca2+ response, cells expressing GPR40, FDSS reader
Description: FDSS-Based Intracellular Calcium Assay
Cell lines expressing GPR40 are generated using the pDEST-3×FLAG gene expression system and are cultured in culture medium comprising the following components: F12 (Gibco #11765), 10% lipid deprived fetal bovine serum, 250 μg/ml zeocin and 500 μg/ml G418. To conduct the fluorescent imaging plate reader (FLIPR)-based calcium flux assay to measure intracellular Ca^2+ response, cells expressing GPR40 are plated on 384 well plates (BD Biocoat #356697) at a density of 20,000 cells/20 μL medium per well in phenol red and serum-free DMEM (Gibco #21063-029) and incubated overnight. Using BD kit #s 80500-310 or -301, the cells are incubated with 20 μL per well of Hank's buffered salt solution with 1.7 mM probenecid and Fluo-3 at 37° C. for 30 min. Compounds are dissolved in DMSO and diluted to desired concentrations with assay buffer and added to the cells as 3× solution (20 μL per well). Run fluorescence/luminescence reader FDSS (Hamamatsu) to read intracellular Ca^2+ response.

hGPR40 [2] = target: T1, hGPR40

T1 sequence (O14842 whole entry): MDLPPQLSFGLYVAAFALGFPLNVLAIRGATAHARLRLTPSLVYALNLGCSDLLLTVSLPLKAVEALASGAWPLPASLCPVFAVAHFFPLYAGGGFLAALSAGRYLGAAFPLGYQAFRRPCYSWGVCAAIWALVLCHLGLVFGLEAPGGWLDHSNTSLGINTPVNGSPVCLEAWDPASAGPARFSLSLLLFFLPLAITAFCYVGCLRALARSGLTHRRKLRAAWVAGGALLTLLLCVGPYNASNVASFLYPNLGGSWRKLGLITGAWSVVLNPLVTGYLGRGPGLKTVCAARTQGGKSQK

Row | Compound | EC50 (hGPR40 [1]) | EC50 (hGPR40 [2])
1 | 2-((2S,3S,4R)-1-(4-(((3,4-trans)-1-(5-Chloro-2-methoxypyridin-4-yl)-3-methylpiperidin-4-yl)oxy)phenyl)-4-(3-methoxy-2-methylpropoxy)-3-methylpyrrolidin-2-yl)acetic acid [Example 21, Isomer 1] | 120 nM | 
2 | 2-((2S,3S,4R)-1-(4-(((3,4-trans)-1-(5-Chloro-2-methoxypyridin-4-yl)-3-methylpiperidin-4-yl)oxy)phenyl)-4-(3-methoxy-2-methylpropoxy)-3-methylpyrrolidin-2-yl)acetic acid [Example 21, Isomer 2] | 100 nM | 
3 | COCCCO[C@H]1CN(c2ccc(O[C@@H]3CCN(c4cc(OC)ncc4Cl)C[C@H]3C)cc2)[C@@H](CC(=O)O)[C@@H]1C (single isomer, unassigned) [Example 1] | 56 nM | 5 nM
4 | COCCCO[C@H]1CN(c2ccc(OC3CCN(c4cc(OC)ncc4Cl)CC3C)c(F)c2)[C@@H](CC(=O)O)[C@@H]1C (single isomer, unassigned) [Example 7] | 97 nM | 
5 | CCOc1ccc(F)c(N2CCC(Oc3ccc(N4C[C@H](OCCCOC)[C@@H](C)[C@@H]4CC(=O)O)cn3)C(C)C2)c1 (single isomer, unassigned) [Example 9, HCl] | 170 nM | 35 nM
6 | CCOc1ccc(F)c(N2CCC(Oc3ccc(N4C[C@H](OCCCOC)[C@@H](C)[C@@H]4CC(=O)O)cc3)C(C)C2)c1 (single isomer, unassigned) [Example 14, HCl] | 51 nM | 7 nM
7 | COCCCO[C@H]1CN(c2ccc(OC3CCN(c4cc(OC)ncc4Cl)CC3CC(C)C)nc2)[C@@H](CC(=O)O)[C@@H]1C (single isomer, unassigned) [Example 18, Isomer 1] | 1300 nM | 
8 | COCCCO[C@H]1CN(c2ccc(OC3CCN(c4cc(OC)ncc4Cl)CC3CC(C)C)nc2)[C@@H](CC(=O)O)[C@@H]1C (single isomer, unassigned) [Example 18, Isomer 2] | 290 nM | 
9 | COCCCO[C@H]1CN(c2ccc(OC3CCN(c4cc(OC)ncc4Cl)CC3CC(C)C)cc2)[C@@H](CC(=O)O)[C@@H]1C (single isomer, unassigned) [Example 19, Isomer 1] | 1500 nM | 
10 | COCCCO[C@H]1CN(c2ccc(OC3CCN(c4cc(OC)ncc4Cl)CC3CC(C)C)cc2)[C@@H](CC(=O)O)[C@@H]1C (single isomer, unassigned) [Example 19, Isomer 2] | 230 nM | 
11 | CCOc1ccc(F)c(N2CCC(Oc3ccc(N4C[C@H](OCCCOC)[C@@H](C)[C@@H]4CC(=O)O)cc3F)C(C)C2)c1 (single isomer, unassigned) [Example 20] | 110 nM | 
12 | COCCCO[C@H]1CN(c2ccc(OC3CCN(c4cc(OC)ncc4Cl)CC3C)nc2)[C@@H](CC(=O)O)[C@@H]1C (stereo partly drawn) [Example 2, 2-((2S,3S,4R)-1-(6-(((3,4-trans)-1-(5-Chloro-2-methoxypyridin-4-yl)-3-methylpiperidin-4-yl)oxy)pyridin-3-yl)-4-(3-methoxypropoxy)-3-methylpyrrolidin-2-yl)acetic acid, HCl] | 180 nM | 27 nM
13 | CCOc1ccc(F)c(N2CCC(Oc3ccc(N4C[C@H](OCCCOC)[C@@H](C)[C@@H]4CC(=O)O)cc3)CC2)c1 [Example 3, 2-((2S,3S,4R)-1-(4-((1-(5-Ethoxy-2-fluorophenyl)piperidin-4-yl)oxy)phenyl)-4-(3-methoxypropoxy)-3-methylpyrrolidin-2-yl)acetic acid, HCl] | 200 nM | 
14 | COCCCO[C@H]1CN(c2ccc(OC3CCN(c4cc(OC)ncc4Cl)CC3)cc2)[C@@H](CC(=O)O)[C@@H]1C [Example 4, 2-((2S,3S,4R)-1-(4-((1-(5-Chloro-2-methoxypyridin-4-yl)piperidin-4-yl)oxy)phenyl)-4-(3-methoxypropoxy)-3-methylpyrrolidin-2-yl)acetic acid] | 73 nM | 13 nM
15 | CCOc1ccc(F)c(N2CCC(Oc3ccc(N4C[C@H](OCCCOC)[C@@H](C)[C@@H]4CC(=O)O)cn3)CC2)c1 [Example 5, 2-((2S,3S,4R)-1-(6-((1-(5-Ethoxy-2-fluorophenyl)piperidin-4-yl)oxy)pyridin-3-yl)-4-(3-methoxypropoxy)-3-methylpyrrolidin-2-yl)acetic acid] | 170 nM | 
16 | COCCCO[C@H]1CN(c2ccc(OC3CCN(c4cc(OC)ncc4Cl)CC3)nc2)[C@@H](CC(=O)O)[C@@H]1C [Example 6, 2-((2S,3S,4R)-1-(6-((1-(5-Chloro-2-methoxypyridin-4-yl)piperidin-4-yl)oxy)pyridin-3-yl)-4-(3-methoxypropoxy)-3-methylpyrrolidin-2-yl)acetic acid] | 200 nM | 19 nM
17 | CCc1cc(N2CCC(Oc3ccc(N4C[C@H](OCCCOC)[C@@H](C)[C@@H]4CC(=O)O)cc3)CC2)c(Cl)cn1 [Example 8, 2-((2S,3S,4R)-1-(4-((1-(5-Chloro-2-ethylpyridin-4-yl)piperidin-4-yl)oxy)phenyl)-4-(3-methoxypropoxy)-3-methylpyrrolidin-2-yl)acetic acid, HCl] | 1100 nM | 
18 | CCOc1ccc(F)c(N2CCC(Oc3ccc(N4C[C@H](CCCOC)C[C@@H]4CC(=O)O)cc3)CC2)c1 [Example 10, 2-((2R,4R)-1-(4-((1-(5-Ethoxy-2-fluorophenyl)piperidin-4-yl)oxy)phenyl)-4-(3-methoxypropyl)pyrrolidin-2-yl)acetic acid, TFA] | 380 nM | 47 nM
19 | CCOc1ccc(F)c(N2CCC(Oc3ccc(N4C[C@H](OCCOC)C[C@@H]4CC(=O)O)cc3)CC2)c1 [Example 13, 2-((2R,4R)-1-(4-((1-(5-Ethoxy-2-fluorophenyl)piperidin-4-yl)oxy)phenyl)-4-(2-methoxyethoxy)pyrrolidin-2-yl)acetic acid, TFA] | 1000 nM | 
20 | CCOc1ccc(F)c(N2CCC(Oc3ccc(N4C[C@H](OCCCS(C)(=O)=O)[C@@H](C)[C@@H]4CC(=O)O)cc3)CC2)c1 [Example 16, 2-((2S,3 S,4R)-1-(4-((1-(5-Ethoxy-2-fluorophenyl)piperidin-4-yl)oxy)phenyl)-3-methyl-4-(3-(methylsulfonyl)propoxy)pyrrolidin-2-yl)acetic acid] | 980 nM | 

Further lines, results first:

Row | EC50 (hGPR40 [1]) | EC50 (hGPR40 [2]) | Compound
21 | 89 nM |  | COCCCO[C@H]1CN(c2cnc(OC3CCN(c4cc(OC)ncc4Cl)CC3C)c(F)c2)[C@@H](CC(=O)O)[C@@H]1C (single isomer, unassigned) [Example 22]
22 | 110 nM |  | CCCCOc1cc(N2C[C@H](OCCCOC)[C@@H](C)[C@@H]2CC(=O)O)cnc1OC1CCN(c2cc(OC)ncc2Cl)CC1C (single isomer, unassigned) [Example 23, TFA]
23 | 65 nM |  | COCCCO[C@H]1CN(c2cnc(OC3CCN(c4cc(OC)ncc4Cl)CC3C)c(C(F)(F)F)c2)[C@@H](CC(=O)O)[C@@H]1C (single isomer, unassigned) [Example 24]
24 | 300 nM |  | COCCCO[C@H]1CN(c2cnc(OC3CCN(c4cc(OC)ncc4Cl)CC3C)c(C)c2)[C@@H](CC(=O)O)[C@@H]1C (single isomer, unassigned) [Example 25]
25 | 110 nM |  | COCCCO[C@H]1CN(c2ccc(OC3CCN(c4cc(OC)ncc4Cl)CC3C)cc2F)[C@@H](CC(=O)O)[C@@H]1C (single isomer, unassigned) [Example 26]
26 | 2000 nM |  | COCCCO[C@H]1CN(c2ccc(OC3CCN(c4cc(OC)ncc4Cl)CC3C)cc2F)[C@H](CC(=O)O)[C@@H]1C (single isomer, unassigned) [Example 27]
27 | 180 nM |  | COCCOCO[C@H]1CN(c2ccc(OC3CCN(c4cc(OC)ncc4Cl)CC3C)cc2)[C@@H](CC(=O)O)[C@@H]1C (single isomer, unassigned) [Example 28]
28 | 61 nM |  | COCCCO[C@H]1CN(c2cnc(OC3CCN(c4cc(OC)ncc4Cl)CC3)c(C(F)(F)F)c2)[C@@H](CC(=O)O)[C@@H]1C [Example 30, 2-((2S,3S,4R)-1-(6-((1-(5-Chloro-2-methoxypyridin-4-yl)piperidin-4-yl)oxy)-5-(trifluoromethyl)pyridin-3-yl)-4-(3-methoxypropoxy)-3-methylpyrrolidin-2-yl) acetic acid]
29 | 190 nM |  | COc1cc(N2CCC(Oc3ccc(N4C[C@H](OCCCC#N)[C@@H](C)[C@@H]4CC(=O)O)cc3)C(C)C2)c(Cl)cn1 (stereo partly drawn) [Example 32, 2-((2S,3S,4R)-1-(4-(((3,4-trans)-1-(5-Chloro-2-methoxypyridin-4-yl)-3-methylpiperidin-4-yl)oxy)phenyl)-4-(3-cyanopropoxy)-3-methylpyrrolidin-2-yl)acetic acid]
30 | 101 nM |  | COCCCO[C@H]1CN(c2cnc(O[C@@H]3CCN(c4cc(OC)ncc4Cl)C[C@H]3C)nc2)[C@@H](CC(=O)O)[C@@H]1C [Example 33, 2-((2S,3 S,4R)-1-(2-(((3R,4R)-1-(5-Chloro-2-methoxypyridin-4-yl)-3-methylpiperidin-4-yl)oxy)pyrimidin-5-yl)-4-(3-methoxypropoxy)-3-methylpyrrolidin-2-yl)acetic acid]

Source: patent US10717725B2, “Pyrrolidine GPR40 modulators” (BRISTOL-MYERS SQUIBB COMPANY, priority 2014, dated 2020)
